Results: PubChem BioAssay (NCI)
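Cultured in 96-well plates, cells were exposed to test compound for 48 hours across five concentrations. At the GI50, growth is halved. Definition used: TGI = concentration required for complete inhibition of growth.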

Legend:
Experiment in all cases: NCI anticancer screen, dose series, 48 h
DU-145 prostate = tested on: DU-145 prostate
SK-MEL-28 melanoma = tested on: SK-MEL-28 melanoma
ACHN renal = tested on: ACHN renal
MCF7 breast = tested on: MCF7 breast
BT-549 breast = tested on: BT-549 breast
SF-268 CNS = tested on: SF-268 CNS
HCT-116 colon = tested on: HCT-116 colon
HOP-62 NSCLC = tested on: HOP-62 NSCLC
OVCAR-8 ovarian = tested on: OVCAR-8 ovarian
NCI-H226 lung = tested on: NCI-H226 lung
TK-10 renal = tested on: TK-10 renal
A498 renal = tested on: A498 renal
SW-620 colon = tested on: SW-620 colon
COLO 205 colon = tested on: COLO 205 colon
HCC-2998 colon = tested on: HCC-2998 colon
HT29 colon = tested on: HT29 colon
IGROV1 ovarian = tested on: IGROV1 ovarian
OVCAR-5 ovarian = tested on: OVCAR-5 ovarian
NCI-H460 lung = tested on: NCI-H460 lung
NCI-H522 lung = tested on: NCI-H522 lung
M14 melanoma = tested on: M14 melanoma
SK-MEL-2 melanoma = tested on: SK-MEL-2 melanoma
T-47D breast = tested on: T-47D breast
SF-539 CNS = tested on: SF-539 CNS
PC-3 prostate = tested on: PC-3 prostate
LOX IMVI melanoma = tested on: LOX IMVI melanoma
CCRF-CEM leukemia = tested on: CCRF-CEM leukemia
HOP-92 NSCLC = tested on: HOP-92 NSCLC
RXF 393 renal = tested on: RXF 393 renal
MALME-3M melanoma = tested on: MALME-3M melanoma
SN12C renal = tested on: SN12C renal
U251 CNS = tested on: U251 CNS
SNB-75 CNS = tested on: SNB-75 CNS
OVCAR-3 ovarian = tested on: OVCAR-3 ovarian
UACC-257 melanoma = tested on: UACC-257 melanoma
UACC-62 melanoma = tested on: UACC-62 melanoma
K-562 leukemia = tested on: K-562 leukemia
SNB-19 CNS = tested on: SNB-19 CNS
NCI/ADR-RES ovarian = tested on: NCI/ADR-RES ovarian
MDA-MB-231 breast = tested on: MDA-MB-231 breast
HS 578T breast = tested on: HS 578T breast
HCT-15 colon = tested on: HCT-15 colon
OVCAR-4 ovarian = tested on: OVCAR-4 ovarian
A549 NSCLC = tested on: A549 NSCLC
CAKI-1 renal = tested on: CAKI-1 renal
SK-MEL-5 melanoma = tested on: SK-MEL-5 melanoma
UO-31 renal = tested on: UO-31 renal
SF-295 CNS = tested on: SF-295 CNS
MDA-MB-435 = tested on: MDA-MB-435
SR leukemia = tested on: SR leukemia
786-0 renal = tested on: 786-0 renal
EKVX NSCLC = tested on: EKVX NSCLC
RPMI-8226 leukemia = tested on: RPMI-8226 leukemia
MOLT-4 leukemia = tested on: MOLT-4 leukemia
NCI-H23 lung = tested on: NCI-H23 lung
KM12 colon = tested on: KM12 colon

In the case of `N#Cc1ccc2[nH]cc(Cc3c[nH]c4ccc(C#N)cc34)c2c1`, the GI50 (DU-145 prostate) is reported as 16.3 µM, the TGI (DU-145 prostate) is reported as > 50 µM and the GI50 (SK-MEL-28 melanoma) is reported as 17.4 µM. For the same compound, the TGI (SK-MEL-28 melanoma) was > 50 µM, the GI50 (ACHN renal) was 12.2 µM and the TGI (ACHN renal) was 35.5 µM. The GI50 (MCF7 breast) was 15.2 µM, the TGI (MCF7 breast) was > 50 µM and the GI50 (BT-549 breast) was 9.57 µM. It also gave a TGI (BT-549 breast) of 20.7 µM, a GI50 (SF-268 CNS) of 11.5 µM and a TGI (SF-268 CNS) of 31.7 µM. It also gave a GI50 (HCT-116 colon) of 10.9 µM, a TGI (HCT-116 colon) of 28.4 µM and a GI50 (HOP-62 NSCLC) of 11.6 µM. The TGI (HOP-62 NSCLC) was 28.5 µM, the GI50 (OVCAR-8 ovarian) was 10.2 µM and the TGI (OVCAR-8 ovarian) was 28.2 µM. For the same compound, the GI50 (NCI-H226 lung) was 17.9 µM, the TGI (NCI-H226 lung) was > 50 µM and the GI50 (TK-10 renal) was 13.5 µM. It also gave a TGI (TK-10 renal) of 33.5 µM, a GI50 (A498 renal) of 10.1 µM and a TGI (A498 renal) of 22 µM. The GI50 (SW-620 colon) was 17.8 µM, the TGI (SW-620 colon) was > 50 µM and the GI50 (COLO 205 colon) was 15.8 µM. The TGI (COLO 205 colon) was > 50 µM, the GI50 (HCC-2998 colon) was 9.77 µM and the TGI (HCC-2998 colon) was 18.6 µM. The GI50 (HT29 colon) was 18.4 µM, the TGI (HT29 colon) was > 50 µM and the GI50 (IGROV1 ovarian) was 12.3 µM. The TGI (IGROV1 ovarian) was 35.7 µM, the GI50 (OVCAR-5 ovarian) was 12.3 µM and the TGI (OVCAR-5 ovarian) was 29.8 µM. It also gave a GI50 (NCI-H460 lung) of 9.16 µM, a TGI (NCI-H460 lung) of 23.5 µM and a GI50 (NCI-H522 lung) of 7.45 µM. For the same compound, the TGI (NCI-H522 lung) was 17.4 µM, the GI50 (M14 melanoma) was 10.9 µM and the TGI (M14 melanoma) was 24.3 µM. The GI50 (SK-MEL-2 melanoma) was 9.63 µM, the TGI (SK-MEL-2 melanoma) was 21 µM and the GI50 (T-47D breast) was 10.6 µM. It also gave a TGI (T-47D breast) of 32.8 µM, a GI50 (SF-539 CNS) of 8.64 µM and a TGI (SF-539 CNS) of 16.9 µM. The GI50 (PC-3 prostate) was 9.86 µM, the TGI (PC-3 prostate) was 27.8 µM and the GI50 (LOX IMVI melanoma) was 6.99 µM. It also gave a TGI (LOX IMVI melanoma) of 18.9 µM, a GI50 (CCRF-CEM leukemia) of 12.8 µM and a TGI (CCRF-CEM leukemia) of 39.4 µM. For the same compound, the GI50 (HOP-92 NSCLC) was 8.52 µM, the TGI (HOP-92 NSCLC) was 22.8 µM and the GI50 (RXF 393 renal) was 10.7 µM. For the same compound, the TGI (RXF 393 renal) was 34.9 µM, the GI50 (MALME-3M melanoma) was 6.98 µM and the TGI (MALME-3M melanoma) was 21.1 µM. The GI50 (SN12C renal) was 17 µM, the TGI (SN12C renal) was > 50 µM and the GI50 (U251 CNS) was 15.7 µM. For the same compound, the TGI (U251 CNS) was 48.5 µM, the GI50 (SNB-75 CNS) was 20.4 µM and the TGI (SNB-75 CNS) was > 50 µM. The GI50 (OVCAR-3 ovarian) was 16.7 µM, the TGI (OVCAR-3 ovarian) was 49 µM and the GI50 (UACC-257 melanoma) was 10.1 µM. The TGI (UACC-257 melanoma) was 23.4 µM, the GI50 (UACC-62 melanoma) was 8.42 µM and the TGI (UACC-62 melanoma) was 20.1 µM. The GI50 (K-562 leukemia) was 14.7 µM, the TGI (K-562 leukemia) was > 50 µM and the GI50 (SNB-19 CNS) was 17.2 µM. For the same compound, the TGI (SNB-19 CNS) was > 50 µM, the GI50 (NCI/ADR-RES ovarian) was 12.5 µM and the TGI (NCI/ADR-RES ovarian) was 36.3 µM. The GI50 (MDA-MB-231 breast) was 10.3 µM, the TGI (MDA-MB-231 breast) was 25.1 µM and the GI50 (HS 578T breast) was 11.4 µM. The TGI (HS 578T breast) was 25.7 µM, the GI50 (HCT-15 colon) was 13.5 µM and the TGI (HCT-15 colon) was 42.2 µM. For the same compound, the GI50 (OVCAR-4 ovarian) was 18.5 µM, the TGI (OVCAR-4 ovarian) was > 50 µM and the GI50 (A549 NSCLC) was 9.73 µM. It also gave a TGI (A549 NSCLC) of 24 µM, a GI50 (CAKI-1 renal) of 8.92 µM and a TGI (CAKI-1 renal) of 22.1 µM. The GI50 (SK-MEL-5 melanoma) was 8.7 µM, the TGI (SK-MEL-5 melanoma) was 17.7 µM and the GI50 (UO-31 renal) was 8.64 µM. It also gave a TGI (UO-31 renal) of 20.3 µM, a GI50 (SF-295 CNS) of 8.84 µM and a TGI (SF-295 CNS) of 22.4 µM. It also gave a GI50 (MDA-MB-435) of 11.4 µM, a TGI (MDA-MB-435) of 24 µM and a GI50 (SR leukemia) of 7.99 µM. The TGI (SR leukemia) was 36.7 µM, the GI50 (786-0 renal) was 13.4 µM and the TGI (786-0 renal) was 38 µM. The GI50 (EKVX NSCLC) was 14.9 µM, the TGI (EKVX NSCLC) was > 50 µM and the GI50 (RPMI-8226 leukemia) was 13.9 µM. It also gave a TGI (RPMI-8226 leukemia) of 49.7 µM, a GI50 (MOLT-4 leukemia) of 7.53 µM and a TGI (MOLT-4 leukemia) of 19.5 µM. The GI50 (NCI-H23 lung) was 15.2 µM, the TGI (NCI-H23 lung) was 35.4 µM and the GI50 (KM12 colon) was 9.88 µM. It also gave a TGI (KM12 colon) of 20.1 µM.
